Measured values reported in patent US10131679B2, “Substituted dihydropyrrolopyrazole compound” (UBE INDUSTRIES, LTD., priority 2014, dated 2018).

How the values were obtained:
[1] = target: T1, CDK7 (Homo sapiens, UniProt P50613); test: CDK7 enzyme inhibition test; assay type: biochemical; settings: Ki=IC50/(1+S/Km); 33P bound to MBP, [γ-33P]ATP, 30° C. for 20 minutes; read-out: Ki value of CDK7 inhibitory activity
T1 construct: purchased Carna Biosciences, Inc. 04-108
Summary of the method: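 Recombinant CDK7 with MBP substrate and [γ-33P]ATP (500 μM solution, diluted into the mix) in HEPES pH 7.4/DTT/Triton X-100/MgCl2, 20 min at 30 °C. TCA-precipitated 33P-MBP counted by scintillation; IC50 from inhibition, Ki = IC50/(1+S/Km).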

[2] = tested on: human large intestine cancer cell line (HCT-116); test: Human large intestine cancer (HCT-116) cell growth inhibition test; assay type: cell-based; settings: 72 h, HCT-116, culture for 3 days, sulforhodamine B absorbance
Summary of the method: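 HCT-116 cells seeded at 1.0×10^3 cells/well in McCoy's 5a with 10% FBS, then exposed to compound (0.1% DMSO final) for 3 days. Growth measured by sulforhodamine B absorbance; IC50 derived from concentration-inhibition data.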

T1 sequence (P50613 whole entry): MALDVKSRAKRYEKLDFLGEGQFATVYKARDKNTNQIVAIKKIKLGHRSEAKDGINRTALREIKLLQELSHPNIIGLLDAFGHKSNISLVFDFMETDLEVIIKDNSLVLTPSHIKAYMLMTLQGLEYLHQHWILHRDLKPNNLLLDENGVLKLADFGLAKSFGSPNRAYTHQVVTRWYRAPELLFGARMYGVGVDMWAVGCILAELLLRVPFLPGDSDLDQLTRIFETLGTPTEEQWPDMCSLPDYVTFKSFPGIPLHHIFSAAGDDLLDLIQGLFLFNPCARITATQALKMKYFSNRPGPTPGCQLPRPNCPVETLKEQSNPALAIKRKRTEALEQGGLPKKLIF
T1 sequence (P51946 whole entry partner): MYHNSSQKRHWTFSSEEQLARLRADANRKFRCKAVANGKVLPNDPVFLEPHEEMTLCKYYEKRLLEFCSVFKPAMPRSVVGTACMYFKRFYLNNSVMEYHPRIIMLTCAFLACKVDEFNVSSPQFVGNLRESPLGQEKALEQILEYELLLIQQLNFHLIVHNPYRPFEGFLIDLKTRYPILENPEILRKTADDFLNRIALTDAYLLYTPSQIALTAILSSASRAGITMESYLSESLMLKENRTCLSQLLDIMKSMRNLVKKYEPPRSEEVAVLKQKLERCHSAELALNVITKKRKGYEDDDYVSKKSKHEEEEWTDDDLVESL
T1 sequence (P51948 whole entry partner): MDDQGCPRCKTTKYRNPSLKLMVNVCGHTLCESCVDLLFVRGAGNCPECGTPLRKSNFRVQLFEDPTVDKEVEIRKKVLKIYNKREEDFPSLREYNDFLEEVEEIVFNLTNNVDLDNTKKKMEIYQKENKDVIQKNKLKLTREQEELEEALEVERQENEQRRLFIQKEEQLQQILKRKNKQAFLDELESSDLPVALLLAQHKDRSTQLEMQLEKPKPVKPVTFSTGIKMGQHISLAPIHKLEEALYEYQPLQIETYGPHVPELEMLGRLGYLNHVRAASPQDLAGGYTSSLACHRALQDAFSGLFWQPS

Structure (SMILES)	Ki [1]	IC50 [2]
CC1(C)c2[nH]nc(NC(=O)C3([Si](C)(C)C)CCC3)c2CN1C(=O)N[C@H](CO)c1ccccc1 [IV-114, (S)—N-(2-Hydroxy-1-phenylethyl)-6,6-dimethyl-3-[1-(trimethylsilyl)cyclobutanecarboxamido]-4,6-dihydropyrrolo[3,4-c]pyrazole-5(1H)-carboxamide]	≤ 50 nM	≤ 500 nM
CO[C@@H](C(=O)N1Cc2c(NC(=O)C3([Si](C)(C)C)CCC3)n[nH]c2C1(C)C)c1ccccc1 [IV-1175, (R)—N-[5-(2-Methoxy-2-phenylacetyl)-6,6-dimethyl-1,4,5,6-tetrahydropyrrolo[3,4-c]pyrazol-3-yl]-1-(trimethylsilyl)cyclobutanecarboxamide]	≤ 50 nM	≤ 500 nM
CC(C)(CO)C(NC(=O)N1Cc2c(NC(=O)C3([Si](C)(C)C)CCC3)n[nH]c2C1(C)C)c1ccccc1 (single isomer, unassigned; (-)) [IV-673, (−)-N-(3-Hydroxy-2,2-dimethyl-1-phenylpropyl)-6,6-dimethyl-3-[1-(trimethylsilyl)cyclobutanecarboxamido]-4,6-dihydropyrrolo[3,4-c]pyrazole-5(1H)-carboxamide]	≤ 50 nM	≤ 500 nM
CC(C)(CO)C(NC(=O)N1Cc2c(NC(=O)C3([Si](C)(C)C)CCC3)n[nH]c2C1(C)C)c1ccccc1 (racemic) [IV-354, N-(3-Hydroxy-2,2-dimethyl-1-phenylpropyl)-6,6-dimethyl-3-[1-(trimethylsilyl)cyclobutanecarboxamido]-4,6-dihydropyrrolo[3,4-c]pyrazole-5(1H)-carboxamide]	–	≤ 500 nM
CC1(C)c2[nH]nc(NC(=O)C3([Si](C)(C)C)CCC3)c2CN1C(=O)N[C@H](CCCCO)c1ccccc1 [IV-291, (R)—N-(5-Hydroxy-1-phenylpentyl)-6,6-dimethyl-3-[1-(trimethylsilyl)cyclobutanecarboxamido]-4,6-dihydropyrrolo[3,4-c]pyrazole-5(1H)-carboxamide]	≤ 50 nM	≤ 500 nM
CC(C)(CO)C(NC(=O)N1Cc2c(NC(=O)C3([Si](C)(C)C)CCC3)n[nH]c2C1(C)C)c1ccc(F)cc1 (centres unmarked) [IV-946, N-[1-(4-Fluorophenyl)-3-hydroxy-2,2-dimethylpropyl]-6,6-dimethyl-3-[1-(trimethylsilyl)cyclobutanecarboxamido]-4,6-dihydropyrrolo[3,4-c]pyrazole-5(1H)-carboxamide]	–	≤ 500 nM
CC1(C)c2[nH]nc(NC(=O)C3([Si](C)(C)C)CCC3)c2CN1C(=O)[C@H](OC(F)(F)F)c1ccccc1 [IV-1184, (R)—N-{6,6-Dimethyl-5-[2-phenyl-2-(trifluoromethoxy)acetyl]-1,4,5,6-tetrahydropyrrolo[3,4-c]pyrazol-3-yl}-1-(trimethylsilyl)cyclobutanecarboxamide]	–	≤ 500 nM
CC1(C)c2[nH]nc(NC(=O)C3([Si](C)(C)C)CCC3)c2CN1C(=O)NC(c1ccccc1)C1(CO)CCC1 (centres unmarked) [IV-718, N-{[1-(Hydroxymethyl)cyclobutyl](phenyl)methyl}-6,6-dimethyl-3-[1-(trimethylsilyl)cyclobutanecarboxamido]-4,6-dihydropyrrolo[3,4-c]pyrazole-5(1H)-carboxamide]	–	≤ 500 nM
C[C@@H](CO)NC(=O)N1Cc2c(NC(=O)C3([Si](C)(C)C)CCC3)n[nH]c2C1(C)C [IV-455, (S)—N-(1-Hydroxypropan-2-yl)-6,6-dimethyl-3-[1-(trimethylsilyl)cyclobutanecarboxamido]-4,6-dihydropyrrolo[3,4-c]pyrazole-5(1H)-carboxamide]	≤ 50 nM	–
CC(C)(CO)C(NC(=O)N1Cc2c(NC(=O)C3([Si](C)(C)C)CCC3)n[nH]c2C1(C)C)c1cccc(F)c1 (centres unmarked) [IV-918, N-[1-(3-Fluorophenyl)-3-hydroxy-2,2-dimethylpropyl]-6,6-dimethyl-3-[1-(trimethylsilyl)cyclobutanecarboxamido]-4,6-dihydropyrrolo[3,4-c]pyrazole-5(1H)-carboxamide]	–	≤ 500 nM
